# What was measured:
# sodium channel = assay: Guanidine influx assay (14C-guanidine radiotracer flux, in vitro); type: cell-based, human or rat; conditions: guanidine influx assay using a known cell line that expresses a sodium channel; activity level class
# Procedure, shortened: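 Radiotracer read-out: intracellular 14C-guanidine counted after washing with guanidine-supplemented low-sodium buffer. Cells expressing human or rat channels get test agent plus aconitine activator and tracer, incubated at ambient temperature. Dilution series centred on 1 μM; IC50 by sigmoidal dose-response fit.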
# CYP3A4 = CYP3A4 (Homo sapiens, UniProt P08684); assay: Cytochrome P450 (CYP450) Inhibition Assay, CYP3A4 (Vivid fluorescence, BOMCC substrate); conditions: human, P450 Baculosomes (recombinant CYP3A4), probe BOMCC (Vivid substrate)
# Sequence of CYP3A4 (P08684 whole entry): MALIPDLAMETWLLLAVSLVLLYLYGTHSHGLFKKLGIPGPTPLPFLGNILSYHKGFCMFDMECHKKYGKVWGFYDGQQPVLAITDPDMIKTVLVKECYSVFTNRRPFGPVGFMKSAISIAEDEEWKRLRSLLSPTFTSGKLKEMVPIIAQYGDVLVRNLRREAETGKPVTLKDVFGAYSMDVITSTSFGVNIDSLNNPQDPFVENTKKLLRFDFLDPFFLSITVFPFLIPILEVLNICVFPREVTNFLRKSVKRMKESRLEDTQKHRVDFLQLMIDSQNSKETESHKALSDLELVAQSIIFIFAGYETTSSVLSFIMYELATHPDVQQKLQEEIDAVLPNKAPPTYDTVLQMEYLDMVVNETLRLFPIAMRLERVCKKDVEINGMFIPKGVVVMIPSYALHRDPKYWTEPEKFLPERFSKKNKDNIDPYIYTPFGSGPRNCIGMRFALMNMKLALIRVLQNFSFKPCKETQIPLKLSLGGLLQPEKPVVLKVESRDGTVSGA
melting point [°C],IC50 (sodium channel) [nM],inhibition at 10 µM (CYP3A4) [%],Structure (SMILES)
198 to 199,1000 to 10000,> 50,"Cn1c(=O)oc2cc3c(cc21)OCC31C(=O)N(Cc2ccc(C(F)(F)F)o2)c2ccccc21 (stereo not drawn) [Example 5.8, 3-methyl-1′-{[5-(trifluoromethyl)furan-2-yl]methyl}spiro[furo[2,3-f][1,3]benzoxazole-7,3′-indole]-2,2′(1′H,3H)-dione]"
181 to 182,1 to 100,> 50,"O=C1N(Cc2cccc(Cl)n2)c2ccccc2C12COc1cc3c(cc12)OCCO3 (stereo not drawn) [Example 5.13, 1′-[(6-chloropyridin-2-yl)methyl]-2,3-dihydrospiro[furo[2,3-g][1,4]benzodioxine-8,3′-indol]-2′(1′H)-one]"
161 to 162,1 to 100,< 50,"COc1ccc(CN2C(=O)C3(COc4cc5c(cc43)OCCO5)c3ccccc32)cn1 (stereo not drawn) [Example 5.15, 1′-[(6-methoxypyridin-3-yl)methyl]-2,3-dihydrospiro[furo[2,3-g][1,4]-benzodioxine-8,3′-indol]-2′(1′H)-one]"
216 to 218,1 to 100,< 50,"O=C1N(Cc2cnccn2)c2ccccc2[C@]12COc1cc3c(cc12)OCCO3 [Example 5.16, (8S)-1′-(pyrazin-2-ylmethyl)-2,3-dihydrospiro[furo[2,3-g][1,4]benzodioxine-8,3′-indol]-2′(1′H)-one]"
87 to 89,1000 to 10000,< 50,"CN1C(=O)C2(C(=O)N(Cc3ccccn3)c3ccccc32)c2cc3c(cc21)OCCO3 (stereo not drawn) [Example 5.19, 6-methyl-1′-(pyridin-2-ylmethyl)-2,3-dihydrospiro[1,4-dioxino[2,3-f]indole-8,3′-indole]-2′,7(1H,6H)-dione]"
162 to 164,1 to 100,< 50,"O=C1N(CC2CC2(F)F)c2ccccc2C12COc1cc3c(cc12)OCCO3 (stereo not drawn) [Example 5.21, 1′-[(2,2-difluorocyclopropyl)methyl]-2,3-dihydrospiro[furo[2,3-g][1,4]benzodioxine-8,3′-indol]-2′(1′H)-one]"
152 to 154,1 to 100,< 50,"CN1C(=O)C2(COc3cc4c(cc32)OCCO4)c2ccccc21 (stereo not drawn) [Example 5.22, 1′-methyl-2,3-dihydrospiro[furo[2,3-g][1,4]benzodioxine-8,3′-indol]-2′(1′H)-one]"
169 to 170,1 to 100,> 50,"O=C1N(Cc2nc(C(F)(F)F)cs2)c2ccccc2C12COc1cc3c(cc12)OCCO3 (stereo not drawn) [Example 5.23, 1′-{[4-(trifluoromethyl)-1,3-thiazol-2-yl]methyl}-2,3-dihydrospiro[furo[2,3-g][1,4]benzodioxine-8,3′-indol]-2′(1′H)-one]"
278 to 279,1 to 100,< 50,"O=C1N(Cc2ncccn2)c2ccccc2C12COc1cc3c(cc12)OCCO3 (stereo not drawn) [Example 5.32, 1′-(pyrimidin-2-ylmethyl)-2,3-dihydrospiro[furo[2,3-g][1,4]-benzodioxine-8,3′-indol]-2′(1′H)-one]"
169 to 170,1 to 100,> 50,"COc1cc(OC)nc(CN2C(=O)C3(COc4cc5c(cc43)OCCO5)c3ccccc32)n1 (stereo not drawn) [Example 5.33, 1′-[(4,6-dimethoxypyrimidin-2-yl)methyl]-2,3-dihydrospiro[furo[2,3-g][1,4]benzodioxine-8,3′-indol]-2′(1′H)-one]"
94 to 95,100 to 1000,< 50,"COCCOc1ccc2c(c1)OCC21C(=O)N(Cc2ccccn2)c2ccccc21 (stereo not drawn) [Example 5.34, 6-(2-methoxyethoxy)-1′-(pyridin-2-ylmethyl)spiro[1-benzofuran-3,3′-indol]-2′(1′H)-one]"

# Source: patent publication US8263606B2 (Xenon Pharmaceuticals Inc., priority 2008, dated 2012)
